Measured values from patent US7141680B2, “Aromatic compounds possessing antifungal or antibacterial activity” (Genelabs Technologies, Inc., priority 2002, dated 2006).
Structures can show the parent of a compound that is named as a salt.

Legend:
bacteria = experiment: Minimum inhibitory concentration (MIC) assay, bacteria; type: cell-based
Procedure, shortened: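 Broth microdilution adapted from NCCLS M7-A4; compounds from 10 mM DMSO stocks serially diluted 1:2 in growth medium suited to each bacterium. Inoculum adjusted to 0.5 McFarland in saline, final 1:200 dilution; MIC is lowest concentration preventing visible growth.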

Aspergillus species = experiment: Minimum inhibitory concentration (MIC) assay, filamentous fungi; type: cell-based; conditions: antifungal activity, lowest concentration at which 75% inhibition of growth is observed after 48 h
Procedure, shortened: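 Broth microdilution following NCCLS M38-P, in MOPS-buffered medium at pH 7.0, with seven 1:2 serial dilutions starting at a final 50 μM. Conidial inoculum came from 7-day potato dextrose agar slants, adjusted to OD 0.09–0.11 then diluted. MIC = lowest concentration giving 75% growth inhibition after 48 h at 35 °C.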

Row | SMILES | MIC (bacteria) | MIC (Aspergillus species)
1 | N=C(N)CCCNC(=O)c1cc2ccc(NC(=O)c3cc4cc(C(=O)NCCNC(=N)N)ccc4[nH]3)cc2[nH]1 [Compound 181, 1H-Indole-2,5-dicarboxylic acid 2-{[2-(3-carbamimidoylpropylcarbamoyl)-1H-indol-6-yl]amide} 5-[(2-guanidinoethyl)amide]] | ≤ 45.5 µM | ≤ 50 µM
2 | N=C(N)NCc1cccc(CNC(=O)c2cc3cc(NC(=O)c4ccc5[nH]c(C(=O)NCc6cccc(CNC(=N)N)c6)cc5c4)ccc3[nH]2)c1 [Compound 25, 1H-Indole-2,5-dicarboxylic acid 2-(3-guanidinomethyl-benzylamide) 5-{[2-(3-guanidinomethyl-benzylcarbamoyl)-1H-indol-5-yl]-amide}] | ≤ 45.5 µM | ≤ 50 µM
3 | CNC(=N)NCCNC(=O)c1cc2cc(NC(=O)c3cc4cc(NC(=N)NC)ccc4[nH]3)ccc2[nH]1 [Compound 108, 5-[(5-(N′-methyl-guanidine)-1H-indole-2-carbonyl)-amino]-1H-indole-2-carboxylic acid [2-(N′-methyl-guanidino)ethyl]-amide] | ≤ 45.5 µM | ≤ 50 µM
4 | N=C(N)NCCCNC(=O)c1ccc2[nH]c(C(=O)Nc3ccc4cc(C(=O)NCCNC(=N)N)[nH]c4c3)cc2c1 [Compound 52, 1H-Indole-2,5-dicarboxylic acid 2-{[2-(2-guanidinoethylcarbamoyl)-1H-indol-6-yl]amide} 5-[(3-guanidinopropyl)amide]dihydrochloride] | ≤ 45.5 µM | ≤ 50 µM
5 | CNC(=N)NCCCNC(=O)c1ccc2[nH]c(C(=O)Nc3ccc4[nH]c(C(=O)NCCCNC(=N)NC)cc4c3)cc2c1 [Compound 76, 1H-Indole-2,5-dicarboxylic acid S-[(3-(N′-methyl-guanidino)-propyl)-amide] 2-[[2-(3-(N′-methyl-guanidino)-propylcarbamoyl)-1H-indol-5-yl-]-amide)] | ≤ 45.5 µM | ≤ 50 µM
6 | C/N=C(\NC)NCCCNC(=O)c1cc2cc(NC(=O)c3cc4cc(C(=O)NCCN/C(=N/C)NC)ccc4[nH]3)ccc2[nH]1 [Compound 69, 1H-Indole-2,5-dicarboxylic acid 2-{[2-(N′,N″-dimethyl-guanidino)-ethyl]-amide} 5-({2-[3-(7N′,N″-dimethyl-guanidino)-propylcarbamoyl]-1H-indol-5-yl}-amide)] | ≤ 45.5 µM | ≤ 50 µM
7 | CC(C)Cn1cc(NC(=O)c2cc3cc(NC(=O)CCNC(=N)N)ccc3[nH]2)cc1C(=O)NCCC(=N)N [Compound 115, 5-(3-Guanidino-propionylamino)-1H-indole-2-carboxylic acid [5-(2-carbamimidoyl-ethylcarbamoyl)-1-isobutyl-1H-pyrrol-3-yl]-amide] | ≤ 45.5 µM | ≤ 50 µM
